# Data from US20230085307A1, “PYRIDAZINONE COMPOUND AND HERBICIDE” (NISSAN CHEMICAL CORPORATION, priority 2019, published 2023).
# Legend:
# [1] = tested on: lambsquarters; experiment: Test Example 5: herbicidal effect by foliage application, plastic box (Table 20, symbol O); type: in vivo, lambsquarters (Chenopodium album); conditions: foliage application, 320 g/ha, three weeks after application
# Summary of the method: (§1)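 Foliar spray test: emulsion formulation diluted in water to a set application rate, sprayed onto 14-day-old plants raised in diluvial soil at 25° C to 30° C under glass. Both herbicidal effect and crop effect rated visually three weeks later.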
# [2] = tested on: lambsquarters; experiment: Test Example 4: herbicidal effect by soil treatment (Table 19, symbol O); type: in vivo, lambsquarters (Chenopodium album); conditions: amount of applied herbicide 320 g/ha
# Summary of the method: (§2)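 Step 1: sow seeds in sterilized diluvial soil, cover ~1.5 cm. Step 2: spray diluted emulsion onto soil surface at predetermined rate. Step 3: greenhouse, 25–30° C, three weeks. Step 4: grade effect on each plant by earlier criteria.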
# [3] = tested on: oval-leafed pondweed; experiment: Test Example 2: herbicidal activity, application during weed generation under submerged conditions (Table 17, symbol C); type: in vivo, oval-leafed pondweed (Monochoria vaginalis); conditions: AAH 320 g/ha; application during weed generation, submerged conditions
# Summary of the method: (§3)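 3-wk visual-criteria score after one water-surface dose. Emulsion formulation, water-diluted to set rate; applied at 1–2 leaf stage; alluvial soil, 4 cm standing water; seeds co-sown; greenhouse 25–30° C.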
# [4] = tested on: southern crabgrass; experiment: Test Example 4: herbicidal effect by soil treatment (Table 19, symbol F); type: in vivo, southern crabgrass (Digitaria ciliaris); conditions: amount of applied herbicide 320 g/ha
# Summary of the method: as §2
# [5] = tested on: barnyard grass; experiment: Test Example 3: herbicidal effect by foliage application, Wagner pot (Table 18, symbol H); type: in vivo, barnyard grass (Echinochloa crus-galli); conditions: amount of applied herbicide 320 g/ha
# Summary of the method: (§4)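 Plants were sown in alluvial soil held under 0.1–0.5 cm standing water and grown 14 days in a greenhouse at 25–30 °C. An emulsifiable formulation, water-diluted to the set dose, was then sprayed onto the foliage, and effects were scored three weeks later using previously defined criteria.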
# [6] = tested on: redroot pigweed; experiment: Test Example 4: herbicidal effect by soil treatment (Table 19, symbol N); type: in vivo, redroot pigweed (Amaranthus retroflexus); conditions: amount of applied herbicide 320 g/ha
# Summary of the method: as §2
# [7] = tested on: redroot pigweed; experiment: Test Example 5: herbicidal effect by foliage application, plastic box (Table 20, symbol N); type: in vivo, redroot pigweed (Amaranthus retroflexus); conditions: foliage application, 320 g/ha, three weeks after application
# Summary of the method: as §1
# [8] = tested on: green foxtail; experiment: Test Example 4: herbicidal effect by soil treatment (Table 19, symbol G); type: in vivo, green foxtail (Setaria viridis); conditions: amount of applied herbicide 320 g/ha
# Summary of the method: as §2
# [9] = tested on: Japanese bulrush; experiment: Test Example 1: herbicidal activity, application before weed generation under submerged conditions (Table 16, symbol B); type: in vivo, Japanese bulrush (Schoenoplectus juncoides); conditions: amount of applied herbicide 320 g/ha
# Summary of the method: (§5)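 Emulsion formulation, water-diluted to set dose, was put onto the flooded surface (4 cm depth, alluvial soil) the same day weeds were sown and 2.5-leaf rice transplanted. After 3 weeks at 25-30 °C under glass, each species was rated 0 (≤5% kill) to 5 (≥90% kill).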
# [10] = tested on: barnyard grass; experiment: Test Example 5: herbicidal effect by foliage application, plastic box (Table 20, symbol H); type: in vivo, barnyard grass (Echinochloa crus-galli); conditions: foliage application, 320 g/ha, three weeks after application
# Summary of the method: as §1
# [11] = tested on: oval-leafed pondweed; experiment: Test Example 1: herbicidal activity, application before weed generation under submerged conditions (Table 16, symbol C); type: in vivo, oval-leafed pondweed (Monochoria vaginalis); conditions: amount of applied herbicide 320 g/ha
# Summary of the method: as §5
# [12] = tested on: Japanese bulrush; experiment: Test Example 2: herbicidal activity, application during weed generation under submerged conditions (Table 17, symbol B); type: in vivo, Japanese bulrush (Schoenoplectus juncoides); conditions: AAH 320 g/ha; application during weed generation, submerged conditions
# Summary of the method: as §3
# [13] = tested on: velvetleaf; experiment: Test Example 4: herbicidal effect by soil treatment (Table 19, symbol M); type: in vivo, velvetleaf (Abutilon theophrasti); conditions: amount of applied herbicide 320 g/ha
# Summary of the method: as §2
# [14] = tested on: Chinese sprangletop; experiment: Test Example 3: herbicidal effect by foliage application, Wagner pot (Table 18, symbol D); type: in vivo, chinese sprangletop (Leptochloa chinensis); conditions: amount of applied herbicide 320 g/ha
# Summary of the method: as §4
# [15] = tested on: southern crabgrass; experiment: Test Example 5: herbicidal effect by foliage application, plastic box (Table 20, symbol F); type: in vivo, southern crabgrass (Digitaria ciliaris); conditions: foliage application, 320 g/ha, three weeks after application
# Summary of the method: as §1
# [16] = tested on: barnyard grass; experiment: Test Example 4: herbicidal effect by soil treatment (Table 19, symbol H); type: in vivo, barnyard grass (Echinochloa crus-galli); conditions: amount of applied herbicide 320 g/ha
# Summary of the method: as §2
# [17] = tested on: green foxtail; experiment: Test Example 5: herbicidal effect by foliage application, plastic box (Table 20, symbol G); type: in vivo, green foxtail (Setaria viridis); conditions: foliage application, 320 g/ha, three weeks after application
# Summary of the method: as §1
# [18] = tested on: late watergrass; experiment: Test Example 1: herbicidal activity, application before weed generation under submerged conditions (Table 16, symbol A); type: in vivo, late watergrass (Echinochloa oryzicola); conditions: amount of applied herbicide 320 g/ha
# Summary of the method: as §5
# [19] = tested on: late watergrass; experiment: Test Example 2: herbicidal activity, application during weed generation under submerged conditions (Table 17, symbol A); type: in vivo, late watergrass (Echinochloa oryzicola); conditions: AAH 320 g/ha; application during weed generation, submerged conditions
# Summary of the method: as §3
# [20] = tested on: velvetleaf; experiment: Test Example 5: herbicidal effect by foliage application, plastic box (Table 20, symbol M); type: in vivo, velvetleaf (Abutilon theophrasti); conditions: foliage application, 320 g/ha, three weeks after application
# Summary of the method: as §1
# [21] = tested on: rice flat sedge; experiment: Test Example 3: herbicidal effect by foliage application, Wagner pot (Table 18, symbol E); type: in vivo, rice flat sedge (Cyperus iria); conditions: amount of applied herbicide 320 g/ha
# Summary of the method: as §4
Compound,"O: lambsquarters, herbicidal effect grade [1]","herbicidal effect, O: lambsquarters [2]","herbicidal effect rating, C: oval-leafed pondweed [3]","herbicidal effect, F: southern crabgrass [4]",herbicidal effect on H: barnyard grass [5],"herbicidal effect, N: redroot pigweed [6]","N: redroot pigweed, herbicidal effect grade [7]","herbicidal effect, G: green foxtail [8]","Herbicidal effect, B: Japanese bulrush [9]","H: barnyard grass, herbicidal effect grade [10]","Herbicidal effect, C: oval-leafed pondweed [11]","herbicidal effect rating, B: Japanese bulrush [12]","herbicidal effect, M: velvetleaf [13]",herbicidal effect on D: Chinese sprangletop [14],"F: southern crabgrass, herbicidal effect grade [15]","herbicidal effect, H: barnyard grass [16]","G: green foxtail, herbicidal effect grade [17]","Herbicidal effect, A: late watergrass [18]","herbicidal effect rating, A: late watergrass [19]","M: velvetleaf, herbicidal effect grade [20]",further results
COCCOc1ccc(-c2sc3ccc(F)cc3c2-c2c(O)cnn(C)c2=O)cc1 [2-441],5 (Herbicidal rate of 90% or more (almost completely withered)),4 (Herbicidal rate of 70% or more and less than 90%),0 (Herbicidal rate of 5% or less (almost no effect)),0 (Herbicidal rate of 5% or less (almost no effect)),5 (Herbicidal rate of 90% or more (almost completely withered)),4 (Herbicidal rate of 70% or more and less than 90%),5 (Herbicidal rate of 90% or more (almost completely withered)),0 (Herbicidal rate of 5% or less (almost no effect)),3 (Herbicidal rate of 40% or more and less than 70%),5 (Herbicidal rate of 90% or more (almost completely withered)),3 (Herbicidal rate of 40% or more and less than 70%),0 (Herbicidal rate of 5% or less (almost no effect)),1 (Herbicidal rate of 5% or more and less than 20%),0 (Herbicidal rate of 5% or less (almost no effect)),4 (Herbicidal rate of 70% or more and less than 90%),0 (Herbicidal rate of 5% or less (almost no effect)),5 (Herbicidal rate of 90% or more (almost completely withered)),3 (Herbicidal rate of 40% or more and less than 70%),3 (Herbicidal rate of 40% or more and less than 70%),5 (Herbicidal rate of 90% or more (almost completely withered)),
COCCOCc1ccc(-c2sc3ccc(F)cc3c2-c2c(O)c(C)nn(C)c2=O)cc1 [2-445],5 (Herbicidal rate of 90% or more (almost completely withered)),4 (Herbicidal rate of 70% or more and less than 90%),0 (Herbicidal rate of 5% or less (almost no effect)),5 (Herbicidal rate of 90% or more (almost completely withered)),,5 (Herbicidal rate of 90% or more (almost completely withered)),5 (Herbicidal rate of 90% or more (almost completely withered)),5 (Herbicidal rate of 90% or more (almost completely withered)),0 (Herbicidal rate of 5% or less (almost no effect)),5 (Herbicidal rate of 90% or more (almost completely withered)),0 (Herbicidal rate of 5% or less (almost no effect)),0 (Herbicidal rate of 5% or less (almost no effect)),3 (Herbicidal rate of 40% or more and less than 70%),,5 (Herbicidal rate of 90% or more (almost completely withered)),4 (Herbicidal rate of 70% or more and less than 90%),5 (Herbicidal rate of 90% or more (almost completely withered)),3 (Herbicidal rate of 40% or more and less than 70%),3 (Herbicidal rate of 40% or more and less than 70%),5 (Herbicidal rate of 90% or more (almost completely withered)),
CC(COc1ccc(-c2sc3ccc(F)cc3c2-c2c(O)c(C)nn(C)c2=O)cc1)=NO [2-453],5 (Herbicidal rate of 90% or more (almost completely withered)),5 (Herbicidal rate of 90% or more (almost completely withered)),4 (Herbicidal rate of 70% or more and less than 90%),5 (Herbicidal rate of 90% or more (almost completely withered)),5 (Herbicidal rate of 90% or more (almost completely withered)),5 (Herbicidal rate of 90% or more (almost completely withered)),5 (Herbicidal rate of 90% or more (almost completely withered)),5 (Herbicidal rate of 90% or more (almost completely withered)),3 (Herbicidal rate of 40% or more and less than 70%),5 (Herbicidal rate of 90% or more (almost completely withered)),3 (Herbicidal rate of 40% or more and less than 70%),4 (Herbicidal rate of 70% or more and less than 90%),5 (Herbicidal rate of 90% or more (almost completely withered)),3 (Herbicidal rate of 40% or more and less than 70%),5 (Herbicidal rate of 90% or more (almost completely withered)),5 (Herbicidal rate of 90% or more (almost completely withered)),5 (Herbicidal rate of 90% or more (almost completely withered)),3 (Herbicidal rate of 40% or more and less than 70%),3 (Herbicidal rate of 40% or more and less than 70%),5 (Herbicidal rate of 90% or more (almost completely withered)),herbicidal effect on E: rice flat sedge [21]: 2 (Herbicidal rate of 20% or more and less than 40%)
